# Laboratory results reported in patent US20060204443A1, “Methods for tumor treatment using dendrimer conjugates” (The Government of the USA as represented by the Secretary …, priority 2005, published 2006).
# Entries after “also recorded” stand apart in the source; their conditions may differ.
# Tests used:
# [1] = Quantification of contrast agent in sentinel lymph nodes (signal intensity compared with phantoms); format: in vivo, athymic nu/nu mice
# Procedure: In order to semi-quantify the concentration of contrast agent within each sentinel lymph node, non-tumor bearing athymic nu/nu mice (n=8) were anesthetized and injected with 0.40 μmolGd of the G6 contrast agent (40 mMGd/6400 ppm) into the mammary gland, and axial images were taken with serum phantoms containing known concentrations (2.5 and 5 mM) of G6 using the 3D-fastSPGR (repetition time/echo time 19.2/7.2 msec; inversion time 47 msec; bandwidth 31.2 kHz, flip angle 30°, 3 excitations; 16 slice encoding steps; scan time 2 minutes 25 seconds) 12, 24, 36, 48, and 60 minutes after injection.
# To validate the concentration of G6 agent, we used another method to calculate the Gd concentration in the enhanced left axillary lymph node. The consecutive MR images of 5 separate mice together with the same phantoms used above were taken with the same 3D-fSPGR protocol using 4 flip angles (10, 20, 30, and 40 degrees) at 24 min post-injection of 40 mM/20 μL G6 agent in the left mammary gland. Signal intensity of the enhanced left axillary lymph node was corrected with that in the right axillary lymph node as a non-enhanced control. Then, signal intensities obtained with different flip angles were plotted in order to calculate decreased T1 values in the left axillary lymph node due to the presence of G6 agent. Gd(III) concentrations were calculated based on the decreased T1 values in the enhanced node and the R1 relaxivity of G6 agent at this condition. Technically, multi-flip angle scans were able to be performed once an hour because of the gradient driver overheat on the MRI system. In order to calculate serial concentration of the G6 agent, this separate set of mice was used only to obtain the T1 values. The serial concentrations of G6 agent were calculated based on serial scan data under flip angle (30°) and T1 values obtained from multi-flip angle scans.
# [2] = test system: axillary lymph nodes and their lymphatic vessels; assay: Dynamic 3D-MR lymphangiography, effect of contrast agent size (Example 4); format: in vivo, athymic nu/nu mice; details: for Signal intensity within the axillary lymph node (enhancement ratio, lymph node / adjacent muscle): 0.15 μmolGd/5 μL
# Procedure: Mice were anesthetized with 1.15 mg sodium pentobarbital (Dainabot, Osaka, Japan) by intraperitoneal injection. Then 0.15 μmolGd/5 μL of all nano-size contrast agents or 0.45 μmolGd/5 μL of Gd-[DTPA]-dimeglumine were injected into normal mammary glands or mammary tissue surrounding a tumor. Dynamic MR images were obtained using a 1.5-Tesla superconductive magnet unit (Signa LX, General Electric Medical System, Milwaukee, Wis.) with a birdcage type coil of 3 cm diameter fixed by a custom-made coil holder. The mice were wrapped with gauze to conserve their body temperature and were placed at the center of the coils.
# In order to evaluate the effect of contrast agent molecular size on the ability to visualize the lymphatics and lymph nodes of athymic nu/nu mice, thirty five non-tumor bearing nu/nu mice were divided into seven groups (n=5). The mice were evaluated with 3D-fast spoiled gradient echo (3D-fastSPGR (efgre3d package; Signa Horizon, GE); repetition time/echo time 19.2/7.2 msec; inversion time 47 msec; bandwidth 31.2 kHz, flip angle 30°, 4 excitations; 36 slice encoding steps; scan time 4 minutes 49 seconds) with chemical shift fat-suppression at 6, 12, 18, 24, 30, and 36 minutes post-injection of each contrast agent. The coronal images were reconstructed with 0.6-mm section thickness every 0.3-mm. The field of view was 8×4 cm and the size of the matrix was 512×256. The slice data were processed into 3D images using the maximum intensity projection (MIP) method with the same window and level (window 3500 and level 2100) (Advantage Windows, General Electric Medical System). The enhancement ratio was calculated by taking the average signal intensity in the axillary lymph node and dividing it by the signal intensity in the adjacent muscle.
# [3] = test system: lymphatic drainage from tumor-bearing mammary glands; assay: MR mammo-lymphangiography in breast tumor models (BALB-neuT, PT-18 xenograft); format: in vivo, mice
# From the text: The breast-tumor bearing mice were thirty one week-old BALB-neuT mice (n=3) transgenic for the rat HER-2/neu (Erb B2) oncogene under the control of the mouse mammary tumor virus promotor (MMTV). […] BALB-neuT mice were used because of their spontaneous development of bilateral breast cancers and lymph node metastases. Heterozygous female BALB-neuT mice (BALB/c background) develop mammary gland lobule hyperplasia at 5-6 weeks of age that progresses to atypical hyperplasia by 8-9 weeks, followed by in situ carcinoma by 14 weeks, becoming invasive carcinoma usually by 21 week of age. Rovero et al., J. Immunol.; 165:5133-42, 2000. Most metastatic lymph nodes from the mouse mammary pad localize in the neck, lateral thoracic, or axillary region.
# Tumor xenografts of PT-18, a murine mast cell line, were introduced into the left mammary pad in athymic nu/nu mice. When 10^7 PT-18 cells were injected in the left mammary pad of 10 athymic nu/nu mice, six mice developed tumor masses in the left axillary lymph nodes within three weeks.
# Mice were anesthetized with 1.15 mg sodium pentobarbital (Dainabot, Osaka, Japan), and then injected with 0.15-0.24 μmol Gd/5-8 μL of the PAMAM-G6 contrast agent into normal mammary glands or mammary tissue surrounding a tumor (peritumorally). Dynamic micro-MR images were obtained using a 1.5-Tesla superconductive magnet unit (Signa LX, General Electric Medical System, Milwaukee, Wis.) with a birdcage type coil of 3 cm diameter fixed by a custom made coil holder. Single and double “breast coils” used for imaging breasts in humans are commercially available, for example, from GE Medical Systems (Milwaukee, Wis.) and are routinely available in outpatient MRI centers. The mice were wrapped with gauze to stabilize their body temperature and were placed at the center of the coils. […]
# [4] = in vivo
# [5] = Serum phantoms: T1-weighted MRI signal intensity vs G6 agent concentration; format: physicochemical; details: FIG. 21B
# From the text: In order to verify the correlation between T1-weighted MRI signal intensity and concentration of G6 agent, serum phantoms were made containing various concentrations of the G6 agent with a bovine serum (GIBCO, Invitrogen Co., Carlsbad, Calif.) and MR images were obtained with the same imaging technique as shown above. Three sets of phantoms, high ([…]-40 mMGd), intermediate (0.1-1 mMGd) and low (0.01-0.1 mMGd) concentrations, were studied. A sample of Gd-DTPA was used as an internal control.
# [6] = PT-18 model, peritumoral injection
substance,measurement,setting,value
PAMAM-G6D-(Gd-1B4M)256 dendrimer conjugate,Time of maximum concentration in the axillary lymph node,[1]; five mice,24 minutes post-injection in two of five mice and 36 minutes post-injection in three of five mice
same,Retention in the left axillary lymph node (FIG. 23),"[1]; mouse, in vivo",maintained in high concentration in the lymph node for up to 60 minutes post-injection
same,Accumulation in the lateral thoracic lymph nodes,[1]; number of mice,three of five mice
same,Visualization of axillary lymph nodes and their lymphatic vessels,"[2]; 6-36 minutes post-injection into mammary gland, listed as G6",earliest and most intense opacification of the sentinel lymph nodes; also recorded: visualized at all time points in all 10 mice
same,"Signal intensity within the axillary lymph node (enhancement ratio, lymph node / adjacent muscle)",[2]; 6 minutes post-injection,2.6±0.2
same,"Signal intensity within the axillary lymph node (enhancement ratio, lymph node / adjacent muscle)",[2]; 12 minutes post-injection,2.9±0.3
same,Imaging of enlarged metastatic lymph nodes and dilated lymphatic vessels,[3]; BALB-neuT model,clearly imaged
same,Enhancement of axillary lymph node tissue with metastatic tumor cells,[3]; [6],did not shown enhancement
same,Lymphatic vessel flowing into the lymph node with a metastatic tumor,[3]; [6],dilated and showed enhancement
same,Survival in the lymph system,[4],intermediate survival period in the lymph system
same,T1 relaxivity,[5],much higher T1 relaxivity than Gd-DTPA
